Source: paper PMC13170813, “Agmatine coumaroyltransferase gene on the short arm of chromosome 2H is involved in hordatine biosynthesis in barley” (Plant Biotechnology, 2026)

Tested on: T1, HvACT-2HS1
T1 construct: full-length, 467 residues; pET28a (NdeI) N-terminal His-tag removed with thrombin; E. coli Rosetta 2 (DE3); 57 kDa SDS-PAGE, 51 kDa native, monomer
Experiment: HPLC of product ([…] nm), Michaelis-Menten non-linear fit
Format: biochemical, Hordeum vulgare subsp. vulgare
Conditions: 100 mM Tris-HCl pH 8.5, 40°C

| SMILES | Km (100 µM p-coumaroyl-CoA) [µM] | Km (100 µM agmatine) [µM] |
| --- | --- | --- |
| N=C(N)NCCCCN [Agmatine] | 30 ± 1.3 |  |
| COc1cc(/C=C/C(=O)SCCNC(=O)CCNC(=O)[C@H](O)C(C)(C)COP(=O)(O)OP(=O)(O)OC[C@H]2O[C@@H](n3cnc4c(N)ncnc43)[C@H](O)[C@@H]2OP(=O)(O)O)ccc1O [Feruloyl-CoA] |  | 6.6 ± 2.2 |
| NCCCCN [Putrescine] | 30000 |  |
| CC(C)(COP(=O)(O)OP(=O)(O)OC[C@H]1O[C@@H](n2cnc3c(N)ncnc32)[C@H](O)[C@@H]1OP(=O)(O)O)[C@@H](O)C(=O)NCCC(=O)NCCSC(=O)/C=C/c1ccc(O)cc1 [p-Coumaroyl-CoA] |  | 12 ± 1.3 |
